The text below walks through data of patent publication US5395611A, “Phenolic amine depigmenting and antimelanoma agents” (The Governors of the University of Alberta, priority 1992, dated 1995).

Data set [1] deals with mushroom tyrosinase. Kind of data set: Enzyme kinetics for tyrosinase. The data set is classed as biochemical. The note with it: in words. On the procedure: (§1) Mushroom tyrosinase (400 units/mg) and plasma MAO (1000 units/gm) were obtained from Sigma Chemical Co. (St. Louis, Mo., USA). A reaction mixture consisted of a substrate of 7 to 8 different concentrations (40 to 500 μM for mushroom tyrosinase and 20 to 200 μM for MAO) and of either mushroom tyrosinase (2.5 μg) or MAO (10 μg) in 1.0 mL of 0.05M sodium phosphate buffer, pH 6.8 and 7.4 respectively. The reactions were carried out at 37° C. in a shaking water bath, and stopped by taking 100 μL of the reaction mixture and adding it to 900 μL of 0.4M HCLO4. The disappearance of substrate was followed using HPLC (high pressure liquid chromatography) Km and Vmax values were calculated from the Lineweaver-Burk plots.
^a mushroom tyrosinase; 11 unit/ml of tyrosinase was used. One enzyme
unit will cause an increase in A280 of 0.001 per min at pH 6.8 at
25° C. using Ltyrosine as substrate.

Data set [2] has as its system B16F10 melanoma colonies. Kind of data set: Melanoma-colony formation in the lungs. The data set is classed as in vivo, mouse. How it is done: Murine B16F10 melanoma cell line with a strong metastatic property to form tumour colonies in the lungs was obtained from Dr. Longenecker, Department of Immunology, University of Alberta. Such cell line is well recognized and readily available as reported in Miura et al, supra. The cells were grown in T-75 flasks in dulbecco's MEM available from Gipco Lab Inc., Grand Island, N.Y., supplemented with 10% fetal calf serum, also obtained from Gipco, penicillin (100 μ/ml) and streptomycin (100 μg/ml). The cells were incubated at 37° C. in humidified atmosphere of 5% CO2 in air. […] Viable cells were identified by trypan blue dye exclusion and counted. The cell suspension was diluted to the desired concentration. […] On day zero, the mice were inoculated via the lateral tail vein with 5×10^4 cells in 0.2 ml of N saline. The test drugs were dissolved in normal saline, sterilized by membrane filtration, and administered in a dose of 300 mg/Kg (4 -S-CAP) or 900 mg/Kg (N-Ac-4-S-CAP); starting on day five, the control solution or drug was injected i.p. daily for 14 days. On day 26, the mice were killed by cervical dislocation, their lungs were removed, and the number of melanoma colonies was counted under a dissecting microscope. The results were expressed as percentage reduction in the number of colonies: [a-b/a]×100, where a=colonies in control group and b=colonies in experimental group.

The subject of data set [3] is B16 melanoma. Kind of data set: In vivo growth inhibition of s.c. inoculated B16 melanoma. Details: species or system mouse. How it is done: Briefly, excised tumours were homogenized in normal saline.
The in vivo antimelanoma effect of the compounds were evaluated by percent growth inhibition of inoculated tumour (% g.i.). The percent g.i. was computed from the mean tumour volume at day 12 or 13 of the experiments; i.e., 100× (1- treated group/control group). Tumour volume was calculated by the following formula:
tumour volume=long axis×(short axis)^2 ×1/2.

In data set [4] the test system is black hair follicles. Kind of data set: Depigmentation of new hair (eumelanin/PTCA content). It counts as in vivo, C57BL/6J black mice. The note with it: for Depigmentation of new growth of black hair follicles: in words; for PTCA Content / Depigmentation: 300 mg/kg daily for 14 days, hair day 22.
Method: Female progeny were used in this testing when approximately 8 weeks old and weighing 17 grams.
Thirty mice were randomized into 6 groups of 5 (1 control and 1 for each compound). Starting on day 1, daily for 14 days the agent was injected i.p. or was infiltrated s.c. in an area where hair follicles had been plucked; the dose was 300 mg/kg body weight.
In the same 30 mice, hair follicles were harvested on day 22 (early telogen phase) and their eumelanin content analyzed. […] Briefly, a 10-mg hair sample is homogenized in water at a concentration of 10 mg/ml; the 200-μl homogenate is transferred to a screw-capped test tube, mixed with 1M H2 SO4 (800 μL) and oxidized with 3% KMnO4. The product, pyrrole-2,3,5-tricarboxylic acid (PTCA), is analyzed by HPLC with a UVL detector; samples are measured in duplicate. The eumelanin content is expressed as PTCA (ng/mg) against the PCTA content of BALB/c albino mice as control (≤10 ng/mg, the background value with our method, in which 1 ng corresponds roughly to a eumelanin content of 50 ng), and the degree of depigmentation is expressed as a percentage: (PTCA content of control sample minus PTCA content of experimental sample)/(PCTA content of control sample)×100.
Data set [5] can be described thus: in vivo. Particulars: mouse. On the procedure: 3:1-85 1972. In accordance with this Protocol, ten to fifteen mice were used in each test group. They were weighed and randomized at day one after s.c. inoculation of B16 melanoma cells. From day five, the phenolic melanin precursors were administered i.p. daily for nine days. The test compounds were dissolved in normal saline, and sterilized by heating to 100° C. for 2 minutes. […] They were administered j.p. with the following doses: 400 mg/Kg - 4-S-CAP; 200 to 300 mg/Kg - 4-S-CAP; and 200 to 1200 mg/Kg - N-Ac-4-S-CAP. A catalytic amount of L-dopa, 25 mg/Kg and antidecarboxylase, carbidopa, 400 mg/Kg, were also administered. Carbidopa was given one hour prior to L-dopa administration. DTIC (NSC 4538) was used as a control drug at a dose of 60 mg/Kg. Acute toxicity of 4-S-CP and 4-S-CAP was evaluated from 100 to 1600 mg/Kg.
The B16 mouse melanoma was maintained by s.c. inoculation of tumour cells into the back of C57BL7J mice (5 to 6 weeks, female). […] Briefly, excised tumours were homogenized in normal saline. The homogenized tumour cells were then passed through a sterile 80 mesh stainless steel screen, washed with normal saline, centrifuged (500 g. for 10 minutes) and resuspended in normal saline. Suspensions of viable melanoma cells at the concentration of 1×10^6 per 0.1 ml were inoculated s.c. into both the right and left inguinal areas of C57BL/6J mice (female, 5 to 6 weeks old, 18 to 20 gm).

The nature of data set [6]: Urinary excretion after i.p. injection (metabolic assay). It counts as in vivo, mice. How it is done:
Fifteen mice randomly divided into three groups of five were injected i.p. with a test agent (300 mg/kg) dissolved in N saline solution. Group 1 were injected with 4-S-CAP, group 2 with N-Ac-4-S-CAP, group 3 were controls. The mice are kept in metabolic cages; their urine is collected 3, 8 and 24 hr after injection, and the 4-S-CAP and N-Ac-4-S-CAP content is measured by HPLC in a system consisting of a Waters 600E liquid chromatography, with a Bondapak C18 column (3.0×300 mm; particle size, 10 μm) and a Waters 460 electrochemical detector. Mobile phase: 0.1M potassium phosphate buffer, pH 2.1, containing 0.1 mM Na2 EDTA methanol, 80:20 (v/v); column temperature, 60° C.; flow rate 1.0 ml/min. Urine samples are hydrolysed with 0.1M HCl before assay, and the phenols are detected at 850 mV against an Ag/AgCl reference electrode.

The subject of data set [7] is melanocytes. Nature of the data set: Light and electron microscopy of follicular melanocytes. The note with it: for Cytotoxicity for follicular depigmentation: conclusion in words; for Electron microscopy of melanocytes/melanosomes: 10 days. It counts as in vivo, mice. How it is done: In […] of 4 mice (1 control and 1 for each compound) were treated daily with the control or compound injected i.p. The compounds tested were 4-S-CAP, N-Ac-4-S-CAP and α-Me-4-S-CAP. Samples of skin and regrowing hair follicles were excised under brief general anaesthesia on day 10 (late anagen phase), fixed in Karnovsky's solution (2.5% glutaraldehyde and 2.5% paraformaldehyde in 011M cacodylate buffer), and refixed in 1% osmium tetroxide in cadodylate buffer. Tissues were stained en bloc with 1.5% uranyl acetate in o.1M veronal buffer for 30 min, dehydrated in graded ethanol solutions, embedded in epoxy resin, and sectioned with a Potter-Blum ultramicrotome MT II. Sections 1.0 μm thick were stained with methylene blue for light microscopy, thin sections were stained with led citrate for electron microscopy.

In data set [8] the test system is plasma monoamine oxidase (MAO). Kind of data set: Enzyme kinetics for monoamineoxidase (plasma MAO). The data set is classed as biochemical. The note with it: in words. How it is done:
as §1

The conditions of data set [9]: hydroquinone preparations; cited from earlier work.
Data set [10] relates to skin. The note with it: cited from earlier work.
Data set [11] relates to melanoma. Particulars: in words; cited from earlier work.
For data set [12] the following is noted: acute toxicity, evaluated 100 to 1600 mg/Kg (Miura et al); cited from earlier work.
Data set [13] deals with follicular melanocytes. The note with it: in words; cited from earlier work.

Entries after “also recorded” stand apart in the source; their conditions may differ. A value given as a limit tells only on which side of the number the result lay.

For the compound `CC(=O)NCCSc1ccc(O)cc1` [N-Ac-4-S-CAP, N-ACETYL-4-S-CYSTEAMINYLPHENOL], the Substrate for tyrosinase entry in data set [1] is “tyrosinase substrate”. The “Colonies, % control” value in data set [2] (900 mg/kg i.p. daily for 14 days, day 26) stood at 24.9%. Also, in data set [2] (in words), the “Number of B16F10 melanoma colonies” value was “significantly reduced”. Moreover, in [2] (summary statement), the “Melanoma lung colonies reduced to % of original volume” value came out at 25%. Moreover, the “% Gi (growth inhibition)” value in data set [3] (Experiment I, 200 mg/Kg) was 39.8%; in [3] (Experiment I, 400 mg/Kg), 57.3%; in [3] (Experiment I, 600 mg/Kg) it was 63.18%; in data set [3] (Experiment I, 800 mg/Kg), 74.4%; in data set [3] (Experiment II, 200 mg/Kg) it was 32.0%; in data set [3] (Experiment II, 400 mg/Kg) it was 34.0%. Further, the “% Gi (growth inhibition)” value in data set [3] (Experiment II, 800 mg/Kg) stood at 63.4%; in data set [3] (Experiment II, 1200 mg/Kg) it was 70.7%. Besides, in data set [3] (Experiment II, 200 mg/Kg), the “Tumour Volume” value is on record as 370 ± 37 mm^3. Also, in data set [3] (in words), the “Growth inhibition of B16 melanoma” value is “dose-dependent linear growth inhibition; also recorded: significant reduction in size of s.c. inoculated melanoma”. Also, the “Depigmentation of new growth of black hair follicles” value in data set [4] is “most marked; also recorded: no statistically significant difference in melanin content between hair follicles with N-Ac-4-S-CAP and control albino mice”. The “Single dose toxicity level” value in data set [5] is listed as ~1,400 mg/kg of body weight. This compound showed an LD50 in data set [5] (ip) of no more than 1400 mg/kg. Moreover, the MTD in data set [5] (ip) turned out to be 1200 mg/kg. The “Urinary excretion of unchanged compound, amount” value in data set [6] (3 h after i.p. injection, 5.2 mg/mouse, unit printed ng) stood at 7.23e-07 ± 2.7e-08 mg; in data set [6] (8 h after i.p. injection, 5.2 mg/mouse), 1.034 ± 0.033 mg; in [6] (24 h after i.p. injection, 5.2 mg/mouse) it was 1.089 ± 0.028 mg. The “i.p. dose excreted as 4-S-CAP, amount” value in [6] (urine, i.p. injection) amounted to 0.066 ± 0.003 mg. In addition, the dose excreted at 3 h in data set [6] (urine, ip, 300 mg/kg, 3 h after i.p. injection, 5.2 mg/mouse, read-out: Urinary excretion of unchanged compound, % of dose) stood at 13.9%. In addition, in [6] (urine, ip, 300 mg/kg, 8 h after i.p. injection, 5.2 mg/mouse, read-out: Urinary excretion of unchanged compound, % of dose), the dose excreted at 8 h is 19.8%. In addition, the dose excreted at 24 h in data set [6] (urine, ip, 300 mg/kg, 24 h after i.p. injection, 5.2 mg/mouse, read-out: Urinary excretion of unchanged compound, % of dose) was found to be 20.4%. In addition, the “Cytotoxicity for follicular depigmentation” value in data set [7] is recorded as “greatest cytotoxicity for follicular depigmentation”. Moreover, the “Electron microscopy of melanocytes/melanosomes” value in data set [7] (i.p.) was “no melanocytes or melanosomes were visible”. Besides, in data set [7] (i.p., day 10), the “Light microscopy of hair follicles” value was “neither functioning melanocytes nor melanin pigments remained in the follicles”. For the same compound, in data set [8], the “Substrate for plasma MAO” value is recorded as “not, however, a substrate for plasma MAO”.
Consider `Oc1ccc(O)cc1` [hydroquinone], for which the Stability entry in data set [9] was “very unstable”. Further, the Skin irritation result in [10] (hydroquinone preparations) is reported as “cause skin irritation”. Also, in data set [10] (prolonged period and high concentration), the “Permanent whitening of the skin” value is on record as “can also cause permanent whitening of the skin”.
For the compound `COC(=O)C(N)CSc1ccc(O)cc1` (stereo not drawn) [methyl ester of 4-S-CP], the “Inhibition of melanoma growth” value in data set [11] is “some inhibition of melanoma growth, although not as active as the 4-S-CAP”.
For `NC(CSc1ccc(O)cc1)C(=O)O` (stereo not drawn) [4-S-CP, 4-S-cysteinylphenol], in [11], the “Inhibition of melanoma growth” value is given as “some inhibition of melanoma growth, although not as active as the 4-S-CAP”. The Lethal dose in [12] was 600 mg/kg. The “Effect on black hair follicles / black hair” value in [13] is on record as “depigmentation of black hair as manifested by loss of functioning melanocytes”.
As for `NCCCSc1ccc(O)cc1` [4-S-HomoCAP], the “Depigmentation of new growth of black hair follicles” value in [4] is on record as “much more depigmentation when given s.c. than i.p”. For the same compound, the “PTCA Content” value in data set [4] (s.c.) is 397.7 ± 279.3 ng/mg.
Turning to `CN(C)CCSc1ccc(O)cc1` [N,N-DiMe-4-S-CAP], the Depigmentation turned out to be 7.3% in data set [4] (i.p.) and 6.1% in data set [4] (s.c.). Further, the “PTCA Content” value in data set [4] (i.p.) is given as 1009.0 ± 193.5 ng/mg; in data set [4] (s.c.), 1023.4 ± 110.1 ng/mg. In addition, the results for the “Depigmentation of new growth of black hair follicles” value in data set [4] and in [4] (listed as N,N-Di-Me-4-S-CAP) were “the lowest; also recorded: no significant depigmentation” and “no visible changes in pigmentation in new follicles”, respectively.
Regarding `CC(N)CSc1ccc(O)cc1` (stereo not drawn) [α-Me-4-S-CAP], the Depigmentation stood at 89% in data set [4] (i.p., 300 mg/kg) and 58% in data set [4] (s.c., 300 mg/kg). In data set [4], the “Depigmentation of new growth of black hair follicles” value is “i.p. administration induced more depigmentation than s.c”. For the same compound, in data set [4] (s.c. administration, plucked area), the “Irritation of the skin” value is given as “some irritation of the skin in the plucked area”. Also, the “Single dose toxicity level” value in data set [5] is listed as ~500 mg/kg of body weight. Moreover, the “Cytotoxicity for follicular depigmentation” value in data set [7] is given as “greatest cytotoxicity for follicular depigmentation”. For the same compound, the “Electron microscopy of melanocytes/melanosomes” value in data set [7] (i.p.) is “contained immature melanosomes at stages II and III”.

For orientation: LD50 means the dose at which mortality reaches 50%. Low values mean a more toxic substance, high ones a less toxic substance.
